From patent publication US9828357B2, “Cyclic compounds” (Takeda Pharmaceutical Company Limited, priority 2015, dated 2017)

Columns and labels:
[1] = molecular target: T1, TLR4 (Mus musculus, UniProt Q9QUK6); experiment: Inhibitory effect with respect to NO production (LPS/interferon γ-stimulated RAW264.7); assay type: cell-based, murine; details: RAW264.7 cells, LPS 1.25 ng/mL and mouse interferon γ 0.2 ng/mL, nitrite ion in culture supernatant
T1 construct: endogenous in cells; host or cells: RAW264.7 (murine macrophage cell line)
T1 sequence (Q9QUK6 26-835): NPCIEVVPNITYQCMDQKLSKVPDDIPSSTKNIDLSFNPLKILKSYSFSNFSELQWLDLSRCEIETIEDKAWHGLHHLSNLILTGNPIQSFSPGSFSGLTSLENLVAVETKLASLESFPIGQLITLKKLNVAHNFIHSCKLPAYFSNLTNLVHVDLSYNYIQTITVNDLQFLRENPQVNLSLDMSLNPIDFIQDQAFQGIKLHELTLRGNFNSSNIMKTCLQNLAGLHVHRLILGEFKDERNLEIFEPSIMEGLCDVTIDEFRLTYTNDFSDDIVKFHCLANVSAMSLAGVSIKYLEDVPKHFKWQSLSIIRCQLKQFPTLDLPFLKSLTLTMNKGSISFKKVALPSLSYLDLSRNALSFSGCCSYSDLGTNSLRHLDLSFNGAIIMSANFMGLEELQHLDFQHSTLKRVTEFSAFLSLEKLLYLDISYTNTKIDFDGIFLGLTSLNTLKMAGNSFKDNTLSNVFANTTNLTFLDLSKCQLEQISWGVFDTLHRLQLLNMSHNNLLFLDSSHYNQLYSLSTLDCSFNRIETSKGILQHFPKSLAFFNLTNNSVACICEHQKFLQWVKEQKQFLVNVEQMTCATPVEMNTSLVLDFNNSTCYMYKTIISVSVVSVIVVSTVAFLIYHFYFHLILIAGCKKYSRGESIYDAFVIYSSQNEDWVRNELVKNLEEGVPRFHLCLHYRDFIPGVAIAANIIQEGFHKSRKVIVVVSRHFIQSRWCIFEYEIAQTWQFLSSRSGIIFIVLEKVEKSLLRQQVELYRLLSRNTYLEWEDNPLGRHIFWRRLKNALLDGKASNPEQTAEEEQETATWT
T1 sequence (Q9JHF9 19-160 partner): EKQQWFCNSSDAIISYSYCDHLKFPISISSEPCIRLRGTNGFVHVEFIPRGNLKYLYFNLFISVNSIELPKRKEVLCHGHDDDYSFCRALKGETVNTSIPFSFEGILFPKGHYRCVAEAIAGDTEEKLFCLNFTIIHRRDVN
Description: The inhibitory effect on TLR4 was determined using the inhibition rate due to the test compound with respect to NO production as a result of addition of lipopolysaccharide (LPS) using murine macrophage cell line RAW264.7. The cells were adjusted to 2×10^6 cells/mL using RPM1-1640 culture medium (phenol red free) supplemented with 10% inactivated bovine fetal serum, and were plated on 384 well plate so as to contain 6×10^4 cells/30 μL per well. Thereafter the cells were cultured at 37° C. overnight under 5% CO2/95% air. The test compound dissolved in DMSO was diluted 200 times using RPM1-1640 culture medium and adjusted so as to form a compound concentration of 500 nM. The prepared test compound 10 μL (final concentration 100 nM) was added to the cells, and LPS (Sigma) and mouse interferon γ (Wako Pure Chemicals) were added in amounts of 10 μL so as to form final concentrations of 1.25 ng/mL and 0.2 ng/mL respectively. The cells were further cultured overnight, and then the nitrite ion (stable NO metabolite) concentration in the culture supernatant was measured as an index of NO production. The nitrite ion concentration was assayed by adding 10 μL of 20 μg/mL 2,3-diamino naphthalene (DAN) dissolved in 0.2N HCl to 20 μL culture supernatant, incubating at room temperature for ten minutes, and then adding 10 μL of 0.5N NaOH, and measuring the fluorescent value at 460 nm (excitation wavelength 355 nm) using an EnVision plate reader (Perkin Elmer). The NO production inhibition rate (%) was calculated using the value without the addition of stimulating agent as control of 100% inhibition, and the value without the addition of the compound as control of 0% inhibition.

[2] = system: oxaliplatin induced-neuropathic pain model mouse; experiment: Analgesic action on oxaliplatin induced-neuropathic pain model mouse; assay type: in vivo; details: C57BL/6N mice, 1 week after oxaliplatin 0.3 mg/kg i.p., mean ± standard error
Description: Oxaliplatin was diluted with saline by the predetermined concentration, and administered intraperitoneally to mice (C57BL/6N, male, 8 weeks old) at 0.3 mg/kg. The test compound was dissolved in 10% captisol or 10% captisol containing 0.1% N-methyl-2-pyrrolidone. The compound was administered intravenously (0.1-10 mg/kg body weight) to the mice immediately before intraperitoneal administration of various anticancer drugs. The pain threshold was measured 1 week after oxaliplatin administration. The pain threshold was evaluated as a weighted value (gram) showing pseudo-escape reaction, when the footpad of the right hind limb was pressed using balance type pressurizing device (Ugo Basile). The values in the table show the mean±standard errors of the weighted values.

SMILES	NO production inhibitory effect at 100 nM (% inhibition) [1]	Pain threshold (weighted value showing pseudo-escape reaction) ([2]; 0.1 mg/kg i.v.)	Pain threshold (weighted value showing pseudo-escape reaction) ([2]; 0.3 mg/kg i.v.)	Pain threshold (weighted value showing pseudo-escape reaction) ([2]; 1 mg/kg i.v.)	NO production inhibitory effect at 100 nM (% inhibition) ([1]; 0.1 µM)
CCOC(=O)C1=CC2(CC[C@H]1S(=O)(=O)[C@H]1CCc3cccc(Cl)c31)O[C@H](COC)[C@@H](COC)O2 [Compound 21, Ethyl (2R,3R,8R)-8-(((1S)-7-chloro-2,3-dihydro-1H-inden-1-yl)sulfonyl)-2,3-bis(methoxymethyl)-1,4-dioxaspiro[4.5]dec-6-ene-7-carboxylate]	112 % inhibition	160.0 ± 29.7 gram	265.0 ± 58.5 gram	285.0 ± 19.3 gram	–
CCOC(=O)C1=CC2(CC[C@H]1S(=O)(=O)[C@H]1CCc3cc(F)cc(Cl)c31)O[C@H](CO)[C@@H](CO)O2 [Compound 14, Ethyl (2R,3R,8R)-8-(((1S)-7-chloro-5-fluoro-2,3-dihydro-1H-inden-1-yl)sulfonyl)-2,3-bis(hydroxymethyl)-1,4-dioxaspiro[4.5]dec-6-ene-7-carboxylate]	107 % inhibition	208.0 ± 33.8 gram	215.0 ± 21.6 gram	310.0 ± 33.8 gram	–
CCOC(=O)C1=CC2(CCC1S(=O)(=O)C1CCCc3cccc(Cl)c31)O[C@H](CO)[C@@H](CO)O2 (single isomer, unassigned) [Compound 17]	–	–	–	–	86 % inhibition
CCOC(=O)C1=CC(O)CCC1S(=O)(=O)C1CCc2cccc(Cl)c21 (racemic) [Compound 4, Ethyl 6-((7-chloro-2,3-dihydro-1H-inden-1-yl)sulfonyl)-3-hydroxycyclohex-1-ene-1-carboxylate]	–	–	–	–	110 % inhibition
CCOC(=O)C1=CC2(CCC1S(=O)(=O)C1CCc3c(Cl)cccc31)O[C@H](CO)[C@@H](CO)O2 (stereo partly drawn) [Compound 2, Ethyl (2R,3R)-8-((4-chloro-2,3-dihydro-1H-inden-1-yl)sulfonyl)-2,3-bis(hydroxymethyl)-1,4-dioxaspiro[4.5]dec-6-ene-7-carboxylate]	99 % inhibition	–	–	–	–
CC1(COC(=O)C2=CC3(CCC2S(=O)(=O)C2CCc4cccc(Cl)c42)O[C@@H](CO)[C@H](CO)O3)CC1 (stereo partly drawn) [Compound 8, (1-methylcyclopropyl)methyl (2S,3S)-8-((7-chloro-2,3-dihydro-1H-inden-1-yl)sulfonyl)-2,3-bis(hydroxymethyl)-1,4-dioxaspiro[4.5]dec-6-ene-7-carboxylate]	99 % inhibition	–	–	–	–
CCOC(=O)C1=CC2(CC[C@H]1S(=O)(=O)[C@H]1CCc3cccc(Cl)c31)O[C@@H](CO)[C@H](CO)O2 [Compound 7, Ethyl (2S,3S,8R)-8-(((1S)-7-chloro-2,3-dihydro-1H-inden-1-yl)sulfonyl)-2,3-bis(hydroxymethyl)-1,4-dioxaspiro[4.5]dec-6-ene-7-carboxylate]	105 % inhibition	–	–	–	–
CCOC(=O)C1=CC2(CCC1S(=O)(=O)C1CCc3cccc(Br)c31)O[C@@H](CO)[C@H](CO)O2 (stereo partly drawn) [Compound 12, Ethyl (2S, 3S)-8-((7-bromo-2,3-dihydro-1H-inden-1-yl)sulfonyl)-2,3-bis(hydroxymethyl)-1,4-dioxaspiro[4.5]dec-6-ene-7-carboxylate]	100 % inhibition	–	–	–	–
